We go through 16 molecules from patent US9730914B2, “3,5-diaminopyrazole kinase inhibitors” (Axikin Pharmaceuticals, Inc., priority 2014, dated 2017).

Assay [1] addresses T1, kinase domain protein of RC kinase (RCK) (Homo sapiens, UniProt Q56UN5).
T1 construct: made in house; host or cells: E. coli BL21-derived host (T7 phage) or HEK-293
T1 sequence (Q56UN5 1061-1324 limits assumed): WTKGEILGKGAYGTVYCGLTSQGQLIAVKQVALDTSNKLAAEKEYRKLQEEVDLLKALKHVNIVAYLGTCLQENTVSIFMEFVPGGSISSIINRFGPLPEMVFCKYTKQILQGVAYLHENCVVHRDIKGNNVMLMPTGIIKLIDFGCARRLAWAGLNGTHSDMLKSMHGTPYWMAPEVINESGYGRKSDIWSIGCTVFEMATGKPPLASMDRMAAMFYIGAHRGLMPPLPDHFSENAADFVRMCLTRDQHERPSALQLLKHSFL
The experiment in a line: Kinase competition binding assay (Kd, qPCR readout), RC kinase. The conditions noted are these: Kd class, read-out: RCK Activity Level. An outline of the steps: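 Competition binding: DNA-tagged kinase (T7 phage or HEK-293-expressed) plus immobilized biotinylated ligand beads and compound, 1 h at room temperature, 1% DMSO. Bead-bound kinase eluted and quantified by qPCR. Kd from 11-point 3-fold dilution, top 30,000 nM, retested lower if below 0.5 nM.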
(Real-time PCR tracks product formation cycle by cycle.)

A further assay has as its target T2, JAK2 (Homo sapiens, UniProt O60674).
T2 construct: made in house; host or cells: E. coli BL21-derived host (T7 phage) or HEK-293
The experiment in a line: Kinase competition binding assay (Kd, qPCR readout), JAK2. Conditions: for Kd: Kd class, JAK2, read-out: JAK2 Activity Level; for RCK:JAK2 selectivity ratio: ratio Kd (JAK2): Kd(RCK). In short, it runs like this:
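Competition binding: DNA-tagged kinase (T7 phage or HEK-293-expressed), immobilized biotinylated ligand beads and compound in SeaBlock/PBS/Tween/DTT buffer, 1 hour at room temperature; bound kinase eluted and quantified by qPCR. Kd from 11-point 3-fold dilution, top 30,000 nM typically, final DMSO 1%.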

For a further assay, the target named is T3, JAK3 (Homo sapiens, UniProt P52333).
T3 construct: made in house; host or cells: E. coli BL21-derived host (T7 phage) or HEK-293
The experiment in a line: Kinase competition binding assay (Kd, qPCR readout), JAK3. Conditions: for Kd: Kd class, JAK3, read-out: JAK3 Activity Level; for RCK:JAK3 selectivity ratio: ratio Kd (JAK3): Kd (RCK). An outline of the steps: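 Kd values were derived from 11-point, 3-fold compound series at 1% DMSO, usually topping at 30,000 nM, with retesting from a lower top when under 0.5 nM. It competed with bead-immobilized ligand for 1 h at room temperature, and the captured kinase was measured by qPCR after elution.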

A value given as a limit tells only on which side of the number the result lay.

T3 sequence (P52333 811-1124 limits assumed): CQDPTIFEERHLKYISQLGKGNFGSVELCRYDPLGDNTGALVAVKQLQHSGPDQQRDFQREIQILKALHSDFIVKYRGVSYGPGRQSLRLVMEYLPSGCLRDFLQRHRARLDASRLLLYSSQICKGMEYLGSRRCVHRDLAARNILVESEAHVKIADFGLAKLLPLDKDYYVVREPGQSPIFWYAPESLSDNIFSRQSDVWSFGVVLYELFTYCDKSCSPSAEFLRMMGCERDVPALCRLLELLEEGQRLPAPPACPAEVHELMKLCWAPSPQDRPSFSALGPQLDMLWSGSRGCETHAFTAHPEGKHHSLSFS
T2 sequence (O60674 840-1132 limits assumed): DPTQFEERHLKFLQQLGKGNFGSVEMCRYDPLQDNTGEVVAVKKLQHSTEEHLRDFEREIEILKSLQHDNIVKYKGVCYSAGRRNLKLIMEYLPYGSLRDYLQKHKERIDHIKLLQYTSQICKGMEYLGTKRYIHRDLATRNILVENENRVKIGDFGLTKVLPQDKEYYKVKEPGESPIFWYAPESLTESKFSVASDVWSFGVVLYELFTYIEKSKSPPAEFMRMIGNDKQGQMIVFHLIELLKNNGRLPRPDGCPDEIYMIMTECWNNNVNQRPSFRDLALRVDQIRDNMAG

On to `Cc1cc(CNc2[nH]nc(Nc3ccc(F)cc3)c2C(N)=O)cc(C)c1O` [Compound 42, 3-((4-fluorophenyl)amino)-5-((4-hydroxy-3,5-dimethylbenzyl)amino)-1H-pyrazole-4-carboxamide], for which the Kd (in assay [1]; on JAK2; on JAK3) was greater than 1000 nM throughout. Further, the “RCK:JAK2 selectivity ratio” value on JAK2 was “B (B represents 10<Kd(JAK2): Kd (RCK)<100)”. Besides, at JAK3, the “RCK:JAK3 selectivity ratio” value was “B (B represents 10<Kd (JAK3): Kd (RCK)<100)”.

With `Cc1cc(CNc2[nH]nc(Nc3cccc(C#N)c3)c2C(N)=O)cc(C)c1O` [Compound 43, 3-((3-cyanophenyl)amino)-5-((4-hydroxy-3,5-dimethylbenzyl)amino)-1H-pyrazole-4-carboxamide], the Kd (in assay [1]; on JAK2; on JAK3) was greater than 1000 nM in each case. Moreover, on JAK2, the “RCK:JAK2 selectivity ratio” value is “D (D represents Kd(JAK2): Kd (RCK)<1)”. The “RCK:JAK3 selectivity ratio” value at JAK3 was “C (C represents 1<Kd (JAK3): Kd (RCK)<10)”.

Regarding `Cc1cc(CNc2[nH]nc(Nc3ccc(N4CCN(c5ncccn5)CC4)cc3)c2C(N)=O)cc(C)c1O` [Compound 44, 5-((4-hydroxy-3,5-dimethylbenzyl)amino)-3-((4-(4-(pyrimidin-2-yl)piperazin-1-yl)phenyl)amino)-1H-pyrazole-4-carboxamide], the Kd in assay [1] was 100 to 1000 nM. Further, on JAK2, the Kd is greater than 1000 nM and the “RCK:JAK2 selectivity ratio” value is “B (B represents 10<Kd(JAK2): Kd (RCK)<100)”. Further, on JAK3, the Kd is greater than 1000 nM and the “RCK:JAK3 selectivity ratio” value is “B (B represents 10<Kd (JAK3): Kd (RCK)<100)”.

For `Cc1cc(CNc2[nH]nc(Nc3ccc(CN4CCCCC4)cc3)c2C(N)=O)cc(C)c1O` [Compound 45, 5-((4-hydroxy-3,5-dimethylbenzyl)amino)-3-((4-(piperidin-1-ylmethyl)phenyl)amino)-1H-pyrazole-4-carboxamide], the Kd in assay [1] was less than 50 nM. On JAK2, the Kd is 100 to 1000 nM and the “RCK:JAK2 selectivity ratio” value was “C (C represents 1<Kd (JAK2): Kd (RCK)<10)”. Also, on JAK3, the Kd was in the range of 100 to 1000 nM and the “RCK:JAK3 selectivity ratio” value was “B (B represents 10<Kd (JAK3): Kd (RCK)<100)”.

On to `Cc1cc(CNc2[nH]nc(Nc3ccc(N4CCSCC4)cc3)c2C(N)=O)cc(C)c1O` [Compound 46, 5-((4-hydroxy-3,5-dimethylbenzyl)amino)-3-((4-thiomorpholinophenyl)amino)-1H-pyrazole-4-carboxamide], for which the Kd in assay [1] is less than 50 nM; on JAK2, 100 to 1000 nM; on JAK3, greater than 1000 nM. For the same molecule, the “RCK:JAK2 selectivity ratio” value on JAK2 is reported as “B (B represents 10<Kd(JAK2): Kd (RCK)<100)”. Further, the “RCK:JAK3 selectivity ratio” value at JAK3 is given as “B (B represents 10<Kd (JAK3): Kd (RCK)<100)”.

As to `Cc1cc(CNc2[nH]nc(Nc3ccc(N)cc3)c2C(N)=O)cc(C)c1O` [Compound 47, 3-((4-aminophenyl)amino)-5-((4-hydroxy-3,5-dimethylbenzyl)amino)-1H-pyrazole-4-carboxamide], in assay [1], the Kd is greater than 1000 nM. Besides, on JAK2, the Kd is greater than 1000 nM and the “RCK:JAK2 selectivity ratio” value is “C (C represents 1<Kd (JAK2): Kd (RCK)<10)”. Besides, at JAK3, the Kd was greater than 1000 nM and the “RCK:JAK3 selectivity ratio” value was “C (C represents 1<Kd (JAK3): Kd (RCK)<10)”.

On to `Cc1cc(CNc2[nH]nc(Nc3ccc(S(N)(=O)=O)cc3)c2C(N)=O)cc(C)c1O` [Compound 48, 5-((4-hydroxy-3,5-dimethylbenzyl)amino)-3-((4-sulfamoylphenyl)amino)-1H-pyrazole-4-carboxamide], for which the Kd in assay [1] was in the range of 100 to 1000 nM. Besides, on JAK2, the Kd was 100 to 1000 nM and the “RCK:JAK2 selectivity ratio” value was “C (C represents 1<Kd (JAK2): Kd (RCK)<10)”. For the same molecule, on JAK3, the Kd was greater than 1000 nM and the “RCK:JAK3 selectivity ratio” value was “B (B represents 10<Kd (JAK3): Kd (RCK)<100)”.

Regarding `Cc1cc(CNc2[nH]nc(Nc3ccc(N4CCC(N5CCCC5)CC4)nc3)c2C(N)=O)cc(C)c1O` [Compound 49, 5-((4-hydroxy-3,5-dimethylbenzyl)amino)-3-((6-(4-(pyrrolidin-1-yl)piperidin-1-yl)pyridin-3-yl)amino)-1H-pyrazole-4-carboxamide], the Kd in assay [1] is less than 50 nM; on JAK2 it was 100 to 1000 nM; at JAK3, 100 to 1000 nM. Besides, at JAK2, the “RCK:JAK2 selectivity ratio” value is on record as “A (A represents Kd (JAK2): Kd (RCK)>100)”. Further, the “RCK:JAK3 selectivity ratio” value on JAK3 is recorded as “A (A represents Kd (JAK3): Kd (RCK)>100)”.

For `Cc1cc(CNc2[nH]nc(Nc3ccc(N(C)C)cc3)c2C(N)=O)cc(C)c1O` [Compound 50, 3-((4-(dimethylamino)phenyl)amino)-5-((4-hydroxy-3,5-dimethylbenzyl)amino)-1H-pyrazole-4-carboxamide], the Kd in assay [1] was 100 to 1000 nM; at JAK2, greater than 1000 nM; at JAK3 it was greater than 1000 nM. Also, on JAK2, the “RCK:JAK2 selectivity ratio” value is recorded as “C (C represents 1<Kd (JAK2): Kd (RCK)<10)”. The “RCK:JAK3 selectivity ratio” value on JAK3 was “C (C represents 1<Kd (JAK3): Kd (RCK)<10)”.

Consider `Cc1cc(CNc2[nH]nc(Nc3ccc(CN4CCOCC4)cc3)c2C(N)=O)cc(C)c1O` [Compound 51, 5-((4-hydroxy-3,5-dimethylbenzyl)amino)-3-((4-(morpholinomethyl)phenyl)amino)-1H-pyrazole-4-carboxamide], for which the Kd in assay [1] was less than 50 nM; on JAK2, 100 to 1000 nM; at JAK3 it was greater than 1000 nM. Also, on JAK2, the “RCK:JAK2 selectivity ratio” value is listed as “B (B represents 10<Kd(JAK2): Kd (RCK)<100)”. For the same molecule, the “RCK:JAK3 selectivity ratio” value at JAK3 was “B (B represents 10<Kd (JAK3): Kd (RCK)<100)”.

Turning to `COc1cccc(Nc2n[nH]c(NCc3cc(C)c(O)c(C)c3)c2C(N)=O)c1` [Compound 52, 5-((4-hydroxy-3,5-dimethylbenzyl)amino)-3-((3-methoxyphenyl)amino)-1H-pyrazole-4-carboxamide], the Kd in assay [1] was greater than 1000 nM. Moreover, on JAK2, the Kd is greater than 1000 nM and the “RCK:JAK2 selectivity ratio” value is “C (C represents 1<Kd (JAK2): Kd (RCK)<10)”. Moreover, at JAK3, the Kd is greater than 1000 nM and the “RCK:JAK3 selectivity ratio” value is “C (C represents 1<Kd (JAK3): Kd (RCK)<10)”.

With `Cc1cc(CNc2[nH]nc(Nc3ccc(NC(=O)c4ccc(F)cc4)cc3)c2C(N)=O)cc(C)c1O` [Compound 53, 3-((4-(4-fluorobenzamido)phenyl)amino)-5-((4-hydroxy-3,5-dimethylbenzyl)amino)-1H-pyrazole-4-carboxamide], the Kd in assay [1] lay in the range of 100 to 1000 nM. On JAK2, the Kd was greater than 1000 nM and the “RCK:JAK2 selectivity ratio” value is listed as “A (A represents Kd (JAK2): Kd (RCK)>100)”. Besides, on JAK3, the Kd was greater than 1000 nM and the “RCK:JAK3 selectivity ratio” value was “A (A represents Kd (JAK3): Kd (RCK)>100)”.

`Cc1cc(CNc2[nH]nc(Nc3ccc(-c4cc[nH]n4)cc3)c2C(N)=O)cc(C)c1O` [Compound 54, 3-((4-(1H-pyrazol-3-yl)phenyl)amino)-5-((4-hydroxy-3,5-dimethylbenzyl)amino)-1H-pyrazole-4-carboxamide]: the Kd was 100 to 1000 nM in assay [1], greater than 1000 nM on JAK2 and greater than 1000 nM on JAK3. For the same molecule, at JAK2, the “RCK:JAK2 selectivity ratio” value is “B (B represents 10<Kd(JAK2): Kd (RCK)<100)”. In addition, the “RCK:JAK3 selectivity ratio” value at JAK3 is reported as “B (B represents 10<Kd (JAK3): Kd (RCK)<100)”.

Turning to `COc1ccccc1C(=O)Nc1ccc(Nc2n[nH]c(NCc3cc(C)c(O)c(C)c3)c2C(N)=O)cc1` [Compound 55, 5-((4-hydroxy-3,5-dimethylbenzyl)amino)-3-((4-(2-methoxybenzamido)phenyl)amino)-1H-pyrazole-4-carboxamide], the Kd in assay [1] is 100 to 1000 nM. Moreover, on JAK2, the Kd was greater than 1000 nM and the “RCK:JAK2 selectivity ratio” value is recorded as “B (B represents 10<Kd(JAK2): Kd (RCK)<100)”. In addition, at JAK3, the Kd is greater than 1000 nM and the “RCK:JAK3 selectivity ratio” value was “B (B represents 10<Kd (JAK3): Kd (RCK)<100)”.

Turning to `COc1cccc(C(=O)Nc2ccc(Nc3n[nH]c(NCc4cc(C)c(O)c(C)c4)c3C(N)=O)cc2)c1` [Compound 56, 5-((4-hydroxy-3,5-dimethylbenzyl)amino)-3-((4-(3-methoxybenzamido)phenyl)amino)-1H-pyrazole-4-carboxamide], the Kd in assay [1] lay in the range of 100 to 1000 nM. In addition, on JAK2, the Kd was greater than 1000 nM and the “RCK:JAK2 selectivity ratio” value is “B (B represents 10<Kd(JAK2): Kd (RCK)<100)”. For the same molecule, on JAK3, the Kd is greater than 1000 nM and the “RCK:JAK3 selectivity ratio” value is given as “A (A represents Kd (JAK3): Kd (RCK)>100)”.

Turning to `COc1ccc(C(=O)Nc2ccc(Nc3n[nH]c(NCc4cc(C)c(O)c(C)c4)c3C(N)=O)cc2)cc1` [Compound 57, 5-((4-hydroxy-3,5-dimethylbenzyl)amino)-3-((4-(4-methoxybenzamido)phenyl)amino)-1H-pyrazole-4-carboxamide], the Kd in assay [1] was 50 to 100 nM. Further, on JAK2, the Kd is greater than 1000 nM and the “RCK:JAK2 selectivity ratio” value is “A (A represents Kd (JAK2): Kd (RCK)>100)”. Besides, on JAK3, the Kd was greater than 1000 nM and the “RCK:JAK3 selectivity ratio” value was “A (A represents Kd (JAK3): Kd (RCK)>100)”.
